Here are results for two molecules from US20220354811A1, “METHODS AND COMPOSITIONS FOR MODULATING MACROPHAGES POLARIZATION” (INSERM (INSTITUT NATIONAL DE LA SANTÉ ET DE LA RECHERCHE …, priority 2019, published 2022).

Assay [1] relates to bleomycin-induced pulmonary fibrosis. In words: Bleomycin-induced lung fibrosis in mice. It is filed as in vivo. The settings on record: subcutaneous 18 μg/g body weight twice a day for three weeks; bleomycin-treated mice. From the text:
FIG. 7. Pharmacologic and genetic inhibition of caspase-8 prevents bleomycin-induced pulmonary fibrosis. (A) Quantification of Sirius Red labeling intensity. […] Each dot or square is an individual mouse. *P<0.05 according to Mann-Whitney test. (B) Quantification of airspace number/mm2 of parenchymal tissue. Results expressed as fold change in treated compared to control mice as in B. *P<0.05 according to Mann-Whitney test. (C) Quantification of Sirius Red labeling intensity. Results expressed as fold change in treated compared to control mice, C8 KO+bleomycin compared to C8 KO as in B. *P<0.05 according to Mann-Whitney test. (D) Quantification of airspace number/mm2 of parenchymal tissue. Results are expressed as fold change in treated compared to untreated wild-type mice, as in panel E. *P<0.05 according to Mann-Whitney test. (E) Cytokines were measured in broncho-alveolar lavage fluid collected from bleomycin-treated wild-type (wt) and LysM-Cre/Caspase-8 flox/flox (C8 KO) mice treated with bleomycin. Results are expressed as fold-changes compared to untreated mice. *P<0.05, **P<0.01 according to Mann-Whitney test. […]
Procedures were approved by our Institutional Ethical Committee (CEEA 26) and the French Ministry of Research (#9861). […] To quantify airspace number, tissue sections 4-μm stained with Sirius Red were scanned using a NanoZoomer-SQ (Hamamatsu Corporation, Japan). […]

In assay [2] the target is T1, caspase 3 (Homo sapiens, UniProt P42574).
T1 sequence (P42574 29-175 limits assumed): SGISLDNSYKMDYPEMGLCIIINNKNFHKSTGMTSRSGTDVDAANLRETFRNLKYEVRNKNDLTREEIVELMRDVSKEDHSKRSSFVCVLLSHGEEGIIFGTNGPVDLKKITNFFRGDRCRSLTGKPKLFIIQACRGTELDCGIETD
T1 sequence (P42574 176-277 limits assumed): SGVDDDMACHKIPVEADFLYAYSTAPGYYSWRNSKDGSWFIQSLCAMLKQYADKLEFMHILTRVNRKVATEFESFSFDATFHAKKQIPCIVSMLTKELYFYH
The assay can be described thus: Caspase 3 activity in untreated monocytes (Ac-DEVD-AMC substrate). In kind it is cell-based. Set-up: endogenous in cells; host or cells: primary human peripheral blood monocytes (CD14-selected, healthy donors). The following applies: all the concentrations tested, 1 day. On the procedure:
FIG. 3. Both Q-VD-Oph and Emricasan hamper in the same way apoptosis in untreated monocytes. […] Measures of caspase-3 (DEVD-AMC) and caspase-8 (IETD-AMC) activities. The results are expressed as A.U./mg/min and represent the mean the mean±SD of 3 independent experiments performed in triplicate.
After stimulation, cells were lysed for 30 min at 4° C. in lysis buffer (50 mM HEPES pH 8, 150 mM NaCl, 20 mM EDTA, 1 mM PMSF, 10 μg/mL leupeptin, 10 μg/mL aprotinin and 0.2% Triton X-100) and lysates were cleared at 16 000 g for 15 min at 4° C. Each assay (in triplicate) was performed with 10 μg of protein prepared from control or stimulated cells. Briefly, cellular extracts were then incubated in a 96-well plate with 0.2 mM of DEVD-AMC (Caspase-3) or IETD-AMC (Caspase-8) as substrates for various times at 37° C. Caspase activity was measured either following emission at 460 nm (excitation at 390 nm) in the presence or not of 10 μM of DEVD-CHO or IETD-CHO. Enzyme activities were expressed in arbitrary units (A.U.) per min and per mg of proteins. The same protocol was used with 0.25 units of active recombinant caspase-8 (Enzo, ALX-201-062) or -3 (Enzo, ALX-201-059) in each triplicate.

SMILES strings stand for the structures.

Regarding `C[C@H](NC(=O)C(=O)Nc1ccccc1C(C)(C)C)C(=O)N[C@@H](CC(=O)O)C(=O)COc1c(F)c(F)cc(F)c1F` [Emricasan, (S)-3-((S)-2-(2-((2-(tert-Butyl)phenyl)amino)-2-oxoacetamido)propanamido)-4-oxo-5-(2,3,5,6-tetrafluorophenoxy)pentanoic acid], in assay [1], the “lung fibrosis intensity (Sirius Red staining intensity and air space)” value is recorded as “dramatically decreases”. Moreover, the “caspase 3 activity in untreated monocytes” value in assay [2] is “efficiently inhibited”.
Regarding `CC(C)[C@H](NC(=O)c1ccc2ccccc2n1)C(=O)N[C@@H](CC(=O)O)C(=O)COc1c(F)cccc1F` [Q-VD-OPh], in assay [2], the “caspase 3 activity in untreated monocytes” value was “efficiently inhibited”.
